# From patent publication US9051351B2, “Hepatocyte growth factor mimics as therapeutic agents” (Washington State University, priority 2011, dated 2015)
# “Also recorded” adds a separate entry of the source. Where a SMILES comes first, the peptide text is derived from it. [ ]: non-standard residue; d: D form. The star is where a group is joined. Hexanoyl = CCCCCC(=O)*; Ahx = NCCCCCC(=O)O
# Assays:
# hippocampal neurons = assay: Spine head width in mRFP-β-actin transfected hippocampal neurons; type: cell-based, rat; settings: 10^−12 M, 5 days
# Description: Neurons were transfected with mRFP-β-actin on day in vitro 6 […] using LipofectAMINE™ 2000 (Invitrogen) according to the manufacturer's protocol. This protocol yielded the desired 3-5% transfection efficiency thus enabling the visualization of individual neurons. Higher efficiencies obscured the dendritic arbor of individual neurons. Expression of fluorescently tagged actin allowed clear visualization of dendritic spines, as dendritic spines are enriched in actin. On DIV7 the cells were treated with vehicle (H2O) or peptides (as described in the text) added to media. […] Slides were dried for at least 20 hours at 4° C. and fluorescent images were obtained with Slidebook 4.2 Digital Microscopy Software driving an Olympus IX81 inverted confocal microscope with a 60× oil immersion lens, NA 1.4 and resolution 0.280 μm Dendritic spine density was measured on primary and secondary dendrites at a distance of at least 150 μm from the soma. Five 50 μm long segments of dendrite from at least 10 neurons per data point were analyzed for each data point reported. […] Dendrite length was determined using the National Institutes of Health's Image J 1.41o program (NIH, Bethesda, Md.) and the neurite tracing program Neuron J (Meijering, Jacob et al. 2004) Spines were manually counted. […]
# aged rats = assay: Morris water maze, aged rat model; type: in vivo; settings: aged rats of mixed sex, Dihexa oral 2 mg/kg/day, 8 days
# Procedure: Swim speed was determined from these values.
# The aged rat study employed 24 month old rats of mixed sex. […] The guide was then sealed with a thick stainless steel wire.
smiles,measurement,setting,value
"CCCCCC(=O)N[C@@H](Cc1ccc(O)cc1)C(=O)N[C@H](C(=O)NCCCCCC(N)=O)[C@@H](C)CC [Dihexa, N-hexanoic-Tyr-Ile-(6)-aminohexanoic amide] (Hexanoyl-Tyr-Ile-[Ahx]-NH2)",spine head width,hippocampal neurons,0.80 μm
same,latency to find the pedestal in the water maze,aged rats,preformed significantly better in the water maze than untreated rats; also recorded: performed significantly better than untreated controls
same,latency to find the pedestal in the water maze,aged rats; listed as dihexa,significantly improved performance; also recorded: significantly different than that of the non-treated rats
